Reference: ChEMBL document CHEMBL1201862, “PubChem BioAssay data set” (2004)
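Assay format: 96-well plates, 48-hour exposure. The concentration for 50% growth inhibition is given as GI50.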 Activity calls are given as the source filed them. Rule as the data show it: active = GI50 up to about 1.1 µM and inactive = higher.

Experiments:
Assay in all cases: inhibition of tumour cell growth, NCI panel, 48 h
786-0 = test system: 786-0
BT-549 = test system: BT-549
HCT-15 = test system: HCT-15
HT-29 = test system: HT-29
M14 = test system: M14
MCF7 = test system: MCF7
MDA-N = test system: MDA-N
MOLT-4 = test system: MOLT-4
NCI-H226 = test system: NCI-H226
NCI-H522 = test system: NCI-H522
NCI/ADR-RES = test system: NCI/ADR-RES
OVCAR-4 = test system: OVCAR-4
OVCAR-5 = test system: OVCAR-5
PC-3 = test system: PC-3
RPMI-8226 = test system: RPMI-8226
SF-268 = test system: SF-268
SR = test system: SR
UACC-257 = test system: UACC-257
UO-31 = test system: UO-31

| Structure (SMILES) | GI50 (786-0) | GI50 (BT-549) | GI50 (HCT-15) | GI50 (HT-29) | GI50 (M14) | GI50 (MCF7) | GI50 (MDA-N) | GI50 (MOLT-4) | GI50 (NCI-H226) | GI50 (NCI-H522) | GI50 (NCI/ADR-RES) | GI50 (OVCAR-4) | GI50 (OVCAR-5) | GI50 (PC-3) | GI50 (RPMI-8226) | GI50 (SF-268) | GI50 (SR) | GI50 (UACC-257) | GI50 (UO-31) |
| --- | --- | --- | --- | --- | --- | --- | --- | --- | --- | --- | --- | --- | --- | --- | --- | --- | --- | --- | --- |
| Cc1c(CN2CCOCC2)c(CN2CCOCC2)c(C)n1-c1ccc(Cl)cn1 | > 100 µM (inactive) | > 100 µM (inactive) | > 100 µM | > 100 µM (inactive) | > 100 µM (inactive) | > 100 µM (inactive) | > 100 µM (inactive) | > 100 µM (inactive) | > 100 µM (inactive) | > 100 µM (inactive) | > 100 µM (inactive) | > 100 µM (inactive) | > 100 µM (inactive) | > 100 µM (inactive) | > 100 µM (inactive) | > 100 µM (inactive) | > 100 µM (inactive) | > 100 µM (inactive) | > 100 µM (inactive) |
| CC[C@H]1OC([C@H](O)C/C=C\C#C[Si](C)(C)C)C/C=C\C[C@H]1O[Si](C)(C)C(C)(C)C (stereo partly specified) | > 100 µM (inactive) | > 100 µM (inactive) | > 100 µM | > 100 µM (inactive) | > 100 µM (inactive) | 51.4 µM (inactive) | > 100 µM (inactive) | > 100 µM (inactive) | > 100 µM (inactive) | 40.9 µM (inactive) | > 100 µM (inactive) | > 100 µM (inactive) | > 100 µM (inactive) | > 100 µM (inactive) | 37.8 µM (inactive) | > 100 µM (inactive) | > 100 µM (inactive) | – | 54.5 µM (inactive) |
| CCN1C(=O)C(C)S/C1=N\NC(=O)CSc1nc2ccccc2c(=O)n1CC (stereo unspecified) | > 100 µM (inactive) | > 100 µM (inactive) | > 100 µM | – | > 100 µM (inactive) | > 100 µM (inactive) | > 100 µM (inactive) | > 100 µM (inactive) | > 100 µM (inactive) | > 100 µM (inactive) | > 100 µM (inactive) | 92 µM (inactive) | > 100 µM (inactive) | > 100 µM (inactive) | > 100 µM (inactive) | 90.6 µM (inactive) | > 100 µM (inactive) | > 100 µM (inactive) | 72.9 µM (inactive) |
| Oc1cc(Br)cc2cccnc12 | 9.51 µM (inactive) | 5.15 µM (inactive) | 0.697 µM | 8.22 µM (inactive) | 1.37 µM (inactive) | 0.964 µM (active) | 8.28 µM (inactive) | 1.35 µM (inactive) | 8.41 µM (inactive) | 1.64 µM (inactive) | 1.25 µM (inactive) | 1.25 µM (inactive) | 5.12 µM (inactive) | 3.17 µM (inactive) | 1.31 µM (inactive) | 0.698 µM (active) | 0.56 µM (active) | 2.6 µM (inactive) | 1.5 µM (inactive) |
| CCOc1ccc(C2Oc3c(cccc3OC)C=C2[N+](=O)[O-])cc1OCC (stereo unspecified) | 3.04 µM (inactive) | 5.96 µM (inactive) | 4.86 µM | 2.86 µM (inactive) | 2.38 µM (inactive) | 3.52 µM (inactive) | 2.04 µM (inactive) | 4.22 µM (inactive) | 21.9 µM (inactive) | 1.84 µM (inactive) | 3.15 µM (inactive) | 10.9 µM (inactive) | 9.59 µM (inactive) | 9.33 µM (inactive) | 2.27 µM (inactive) | 11.6 µM (inactive) | 1.62 µM (inactive) | 3.66 µM (inactive) | 2.64 µM (inactive) |
| Nc1ccc(Oc2ccc(C3(c4ccc(Oc5ccc(N)c(O)c5)cc4)C4CC5C6CC7CC5C3C(C7)C6C4)cc2)cc1O | 1.73 µM (inactive) | 4.15 µM (inactive) | 2.4 µM | 1.91 µM (inactive) | 1.45 µM (inactive) | 1.69 µM (inactive) | 1.36 µM (inactive) | 2.07 µM (inactive) | 2.72 µM (inactive) | 1.83 µM (inactive) | 5.62 µM (inactive) | 2.35 µM (inactive) | 1.31 µM (inactive) | 1.86 µM (inactive) | 1.63 µM (inactive) | 2.72 µM (inactive) | 2.25 µM (inactive) | 2.5 µM (inactive) | 2.04 µM (inactive) |
| CCOC(=O)C(=C(SC)SC)c1nn2c(=O)cc(C)nc2s1 | 19.1 µM (inactive) | 18.2 µM (inactive) | 17.1 µM | 20.9 µM (inactive) | 15.9 µM (inactive) | 20.5 µM (inactive) | 16.4 µM (inactive) | 17.7 µM (inactive) | 21.4 µM (inactive) | 23 µM (inactive) | 36.5 µM (inactive) | 28.5 µM (inactive) | 28.4 µM (inactive) | 23.3 µM (inactive) | 17.3 µM (inactive) | 22.1 µM (inactive) | 24.4 µM (inactive) | 23.9 µM (inactive) | 19.5 µM (inactive) |
